In ChEMBL document CHEMBL4382233, “Discovery of novel arylethenesulfonyl fluorides as potential candidates against methicillin-resistant of Staphylococcus aureus (MRSA) for overcoming multidrug resistance of bacterial infections” (2019):
≈ marks a conversion by molar mass, not a printed value. Calls of active or inactive are those of the source. The calls are words filed in the database; no cut-off is given here.

Columns and labels:
[1] = tested on: Staphylococcus haemolyticus; experiment: Antibacterial activity against methicillin-resistant Staphylococcus haemolyticus assessed as zone of inhibition at 50 ug/mL after 24 hrs by agar disc diffusion method; format: functional; settings: read-out: IZ
[2] = tested on: Staphylococcus aureus; experiment: Antibacterial activity against methicillin-resistant Staphylococcus aureus assessed as zone of inhibition at 400 ng/mL after 24 hrs by agar disc diffusion method; format: functional; settings: read-out: IZ
[3] = tested on: Staphylococcus aureus; experiment: Antibiofilm activity against methicillin-resistant Staphylococcus aureus planktonic biofilm assessed as optical density at 492 nm at MIC after 24 hrs by crystal violet staining-based UV-visible spectrophotometric analysis; format: functional
[4] = tested on: Staphylococcus haemolyticus; experiment: Antibacterial activity against methicillin-resistant Staphylococcus haemolyticus assessed as zone of inhibition at 200 ng/mL after 24 hrs by agar disc diffusion method; format: functional; settings: read-out: IZ
[5] = tested on: Staphylococcus aureus; experiment: Antibacterial activity against methicillin-resistant Staphylococcus aureus assessed as zone of inhibition at 50 ug/mL after 24 hrs by agar disc diffusion method; format: functional; settings: read-out: IZ
[6] = tested on: Staphylococcus aureus; experiment: Antibiofilm activity against methicillin-resistant Staphylococcus aureus at MIC after 24 hrs by crystal violet staining-based UV-visible spectrophotometric analysis; format: functional, organism-based
[7] = tested on: Staphylococcus epidermidis; experiment: Antibacterial activity against methicillin-resistant Staphylococcus epidermidis assessed as zone of inhibition at 800 ng/mL after 24 hrs by agar disc diffusion method; format: functional; settings: read-out: IZ
[8] = tested on: Staphylococcus aureus; experiment: Induction of cellular content release in methicillin-resistant Staphylococcus aureus assessed as DNA content by measuring optical density at 260 nm at MIC after 240 mins by UV-visible spectrophotometric analysis; format: functional
[9] = tested on: Staphylococcus aureus; experiment: Induction of pore formation in methicillin-resistant Staphylococcus aureus cell membrane assessed as increase in ferricyanide mediated potassium efflux after 2 hrs by DCPIP dye-based cyclic voltammetric analysis; format: functional, organism-based
[10] = tested on: Staphylococcus haemolyticus; experiment: Antibacterial activity against methicillin-resistant Staphylococcus haemolyticus assessed as zone of inhibition at 800 ng/mL after 24 hrs by agar disc diffusion method; format: functional; settings: read-out: IZ
[11] = tested on: Staphylococcus aureus; experiment: Antibacterial activity against methicillin-resistant Staphylococcus aureus assessed as zone of inhibition at 200 ng/mL after 24 hrs by agar disc diffusion method; format: functional; settings: read-out: IZ
[12] = tested on: Staphylococcus haemolyticus; experiment: Antibacterial activity against methicillin-resistant Staphylococcus haemolyticus after overnight incubation by micro broth dilution analysis; format: functional
[13] = tested on: Staphylococcus epidermidis; experiment: Antibacterial activity against methicillin-resistant Staphylococcus epidermidis after overnight incubation by micro broth dilution analysis; format: functional
[14] = tested on: Staphylococcus epidermidis; experiment: Antibacterial activity against methicillin-resistant Staphylococcus epidermidis assessed as zone of inhibition at 20 ug/mL after 24 hrs by agar disc diffusion method; format: functional; settings: read-out: IZ
[15] = tested on: Staphylococcus aureus; experiment: Antibiofilm activity against methicillin-resistant Staphylococcus aureus assessed as optical density at 492 nm at 1 to 2 times MIC after 24 hrs by crystal violet staining-based UV-visible spectrophotometric analysis; format: functional
[16] = tested on: Staphylococcus epidermidis; experiment: Antibacterial activity against methicillin-resistant Staphylococcus epidermidis assessed as zone of inhibition at 200 ng/mL after 24 hrs by agar disc diffusion method; format: functional; settings: read-out: IZ
[17] = tested on: Staphylococcus haemolyticus; experiment: Antibacterial activity against methicillin-resistant Staphylococcus haemolyticus assessed as zone of inhibition at 400 ng/mL after 24 hrs by agar disc diffusion method; format: functional; settings: read-out: IZ
[18] = tested on: Staphylococcus aureus; experiment: Induction of pore formation in methicillin-resistant Staphylococcus aureus cell membrane assessed as increase in ferricyanide mediated DNA damage after 2 hrs by DCPIP dye-based cyclic voltammetric analysis; format: functional, organism-based
[19] = tested on: Staphylococcus aureus; experiment: Induction of pore formation in methicillin-resistant Staphylococcus aureus cell membrane assessed as increase in ferricyanide mediated cellular leakage after 2 hrs by DCPIP dye-based cyclic voltammetric analysis; format: functional, organism-based
[20] = tested on: Staphylococcus aureus; experiment: Antibacterial activity against methicillin-resistant Staphylococcus aureus assessed as zone of inhibition at 800 ng/mL after 24 hrs by agar disc diffusion method; format: functional; settings: read-out: IZ
[21] = tested on: Staphylococcus epidermidis; experiment: Antibacterial activity against methicillin-resistant Staphylococcus epidermidis assessed as zone of inhibition at 400 ng/mL after 24 hrs by agar disc diffusion method; format: functional; settings: read-out: IZ
[22] = tested on: Staphylococcus aureus; experiment: Antibacterial activity against methicillin-resistant Staphylococcus aureus after overnight incubation by micro broth dilution analysis; format: functional
[23] = tested on: Staphylococcus aureus; experiment: Antibiofilm activity against methicillin-resistant Staphylococcus aureus assessed as reduction in adherence of planktonic bacteria at MIC up to 24 hrs by SEM analysis; format: functional, organism-based
[24] = tested on: Staphylococcus aureus; experiment: Antibacterial activity against methicillin-resistant Staphylococcus aureus at MIC by SEM analysis; format: functional, organism-based; settings: TDE = time-dependent effect
[25] = tested on: Staphylococcus aureus; experiment: Induction of membrane disruption in methicillin-resistant Staphylococcus aureus at MIC up to 24 hrs by SEM analysis; format: functional, organism-based
[26] = tested on: Staphylococcus aureus; experiment: Antibacterial activity against methicillin-resistant Staphylococcus aureus assessed as zone of inhibition at 10 ug/mL after 24 hrs by agar disc diffusion method; format: functional; settings: read-out: IZ
[27] = tested on: Staphylococcus epidermidis; experiment: Antibacterial activity against methicillin-resistant Staphylococcus epidermidis assessed as zone of inhibition at 10 ug/mL after 24 hrs by agar disc diffusion method; format: functional; settings: read-out: IZ
[28] = tested on: Staphylococcus haemolyticus; experiment: Antibacterial activity against methicillin-resistant Staphylococcus haemolyticus assessed as zone of inhibition at 10 ug/mL after 24 hrs by agar disc diffusion method; format: functional; settings: read-out: IZ
[29] = tested on: Staphylococcus aureus; experiment: Antibiofilm activity against methicillin-resistant Staphylococcus aureus at 2 times MIC after 24 hrs by crystal violet staining-based UV-visible spectrophotometric analysis; format: functional, organism-based
[30] = tested on: Staphylococcus aureus; experiment: Antibacterial activity against methicillin-resistant Staphylococcus aureus assessed as zone of inhibition at 30 ug/mL after 24 hrs by agar disc diffusion method; format: functional; settings: read-out: IZ
[31] = tested on: Staphylococcus epidermidis; experiment: Antibacterial activity against methicillin-resistant Staphylococcus epidermidis assessed as zone of inhibition at 30 ug/mL after 24 hrs by agar disc diffusion method; format: functional; settings: read-out: IZ
[32] = tested on: Staphylococcus haemolyticus; experiment: Antibacterial activity against methicillin-resistant Staphylococcus haemolyticus assessed as zone of inhibition at 30 ug/mL after 24 hrs by agar disc diffusion method; format: functional; settings: read-out: IZ

O=S(=O)(F)/C=C/c1ccc(Cl)cc1
zone of inhibition at 50 µg/mL [1]: 7.2 mm
zone of inhibition at 0.4 µg/mL [2]: 8.2 mm
OD [3]: 0.66
zone of inhibition at 0.2 µg/mL [4]: 4.1 mm
zone of inhibition at 50 µg/mL [5]: 8.2 mm
Activity [6]: Active
zone of inhibition at 0.8 µg/mL [7]: 8.4 mm
OD [8]: 1.28
Activity [9]: Active
zone of inhibition at 0.8 µg/mL [10]: 71 mm
zone of inhibition at 0.2 µg/mL [11]: 6.3 mm
MIC99 [12]: 0.846 mg/L (≈ 3.83 µM)
MIC99 [13]: 0.83 mg/L (≈ 3.76 µM)
zone of inhibition at 20 µg/mL [14]: 10.3 mm
OD [15]: 0.66
zone of inhibition at 0.2 µg/mL [16]: 5.2 mm
zone of inhibition at 0.4 µg/mL [17]: 5.1 mm
Activity [18]: Active
Activity [19]: Active
zone of inhibition at 0.8 µg/mL [20]: 10 mm
zone of inhibition at 0.4 µg/mL [21]: 7.2 mm
MIC99 [22]: 0.818 mg/L (≈ 3.71 µM)

O=S(=O)(F)/C=C/c1cc(Cl)nc(Cl)c1
zone of inhibition at 50 µg/mL [1]: 7.2 mm
zone of inhibition at 0.4 µg/mL [2]: 9.2 mm
OD [3]: 0.725
zone of inhibition at 0.2 µg/mL [4]: 5.2 mm
zone of inhibition at 50 µg/mL [5]: 12.1 mm
Activity [6]: Active
zone of inhibition at 0.8 µg/mL [7]: 7.2 mm
OD [8]: 1.85
Activity [9]: Active
zone of inhibition at 0.8 µg/mL [10]: 7.4 mm
zone of inhibition at 0.2 µg/mL [11]: 7.1 mm
MIC99 [12]: 0.842 mg/L (≈ 3.29 µM)
MIC99 [13]: 0.84 mg/L (≈ 3.28 µM)
zone of inhibition at 20 µg/mL [14]: 7.1 mm
Activity [23]: Active
OD [15]: 0.72
Activity [24]: Tde
zone of inhibition at 0.2 µg/mL [16]: 5.4 mm
zone of inhibition at 0.4 µg/mL [17]: 6.5 mm
Activity [18]: Active
Activity [19]: Active
zone of inhibition at 0.8 µg/mL [20]: 11.4 mm
Activity [25]: Active
zone of inhibition at 0.4 µg/mL [21]: 6.3 mm
MIC99 [22]: 0.811 mg/L (≈ 3.17 µM)

CC1(C)S[C@@H]2[C@H](NC(=O)[C@H](N)c3ccccc3)C(=O)N2[C@H]1C(=O)O [AMPICILLIN]
zone of inhibition at 10 µg/mL [26]: 9.95 mm
OD [3]: 0.745
MIC99 [12]: 10.1 mg/L (≈ 28.9 µM)
MIC99 [13]: 7.15 mg/L (≈ 20.5 µM)
zone of inhibition at 10 µg/mL [27]: 11.7 mm
zone of inhibition at 10 µg/mL [28]: 7.6 mm
Activity [29]: Active
MIC99 [22]: 0.12 mg/L (≈ 0.343 µM)

NC[C@H]1O[C@H](O[C@H]2[C@H](O)[C@@H](O[C@H]3O[C@H](CO)[C@@H](O)[C@H](N)[C@H]3O)[C@H](N)C[C@@H]2N)[C@H](O)[C@@H](O)[C@@H]1O [KANAMYCIN]
OD [3]: 0.715
zone of inhibition at 30 µg/mL [30]: 12 mm
MIC99 [12]: 21.2 mg/L (≈ 43.7 µM)
MIC99 [13]: 30.1 mg/L (≈ 62.2 µM)
zone of inhibition at 30 µg/mL [31]: 8.3 mm
zone of inhibition at 30 µg/mL [32]: 4.81 mm
Activity [29]: Active
MIC99 [22]: 9.12 mg/L (≈ 18.8 µM)

CS(=O)(=O)c1cccc(/C=C/S(=O)(=O)F)c1
zone of inhibition at 50 µg/mL [1]: 6.3 mm
zone of inhibition at 0.4 µg/mL [2]: 7.1 mm
OD [3]: 0.612
zone of inhibition at 50 µg/mL [5]: 10 mm
Activity [6]: Active
OD [8]: 1.86
Activity [9]: Active
zone of inhibition at 0.2 µg/mL [11]: 6.4 mm
MIC99 [12]: 39.1 mg/L (≈ 148 µM)
MIC99 [13]: 44.2 mg/L (≈ 167 µM)
zone of inhibition at 20 µg/mL [14]: 6.2 mm
OD [15]: 0.61
Activity [18]: Active
Activity [19]: Active
zone of inhibition at 0.8 µg/mL [20]: 10.2 mm
MIC99 [22]: 0.81 mg/L (≈ 3.06 µM)

CCn1cc(C(=O)O)c(=O)c2cc(F)c(N3CCNCC3)cc21 [NORFLOXACIN]
OD [3]: 0.695
zone of inhibition at 30 µg/mL [30]: 10 mm
MIC99 [12]: 0.58 mg/L (≈ 1.82 µM)
MIC99 [13]: 0.73 mg/L (≈ 2.29 µM)
zone of inhibition at 30 µg/mL [31]: 9.07 mm
zone of inhibition at 30 µg/mL [32]: 12.7 mm
Activity [29]: Active
MIC99 [22]: 0.61 mg/L (≈ 1.91 µM)

N#Cc1ccc(/C=C/S(=O)(=O)F)cc1
zone of inhibition at 50 µg/mL [1]: 7.2 mm
zone of inhibition at 0.4 µg/mL [2]: 7.3 mm
OD [3]: 0.685
zone of inhibition at 0.2 µg/mL [4]: 4.2 mm
zone of inhibition at 50 µg/mL [5]: 11.4 mm
Activity [6]: Active
zone of inhibition at 0.8 µg/mL [7]: 7.6 mm
OD [8]: 1.42
Activity [9]: Active
zone of inhibition at 0.8 µg/mL [10]: 6.2 mm
zone of inhibition at 0.2 µg/mL [11]: 6.1 mm
MIC99 [12]: 0.847 mg/L (≈ 4.01 µM)
MIC99 [13]: 0.831 mg/L (≈ 3.93 µM)
zone of inhibition at 20 µg/mL [14]: 7.5 mm
OD [15]: 0.68
zone of inhibition at 0.2 µg/mL [16]: 5.2 mm
zone of inhibition at 0.4 µg/mL [17]: 5.1 mm
Activity [18]: Active
Activity [19]: Active
zone of inhibition at 0.8 µg/mL [20]: 8.5 mm
zone of inhibition at 0.4 µg/mL [21]: 6.3 mm
MIC99 [22]: 0.84 mg/L (≈ 3.98 µM)
